The text below walks through data of US6903130B1, “Pyrrolidineacetamide derivative alone or in combination for treatment of cns disorders” (UCB S.A., priority 1999, dated 2005).

Marks after values point to notes of the source that are not given here.

Data set [1] in a line: Plasma and brain levels after oral dosing in sound-sensitive mice. Conditions: male, genetically sound-sensitive, derived from a DBA strain, mouse, brain, po, 166.2 mg/kg. Here is the method:
Male genetically sound-sensitive mice (17-30 g; N=10), derived from a DBA strain originally selected by Dr Lehmann of the Laboratory of Acoustic Physiology (Paris) and bred in the UCB Pharma Sector husbandry unit since 1978, were submitted to the induction of audiogenic seizures. Levetiracetam (5.4 mg/kg) and sodium valproate (166.2 mg/kg) were administered orally, alone or in combination, 60 minutes before the induction of audiogenic seizures. For testing audiogenic seizure, the mice were placed in the cages, one mouse per cage, in the sound-attenuated chamber. After a period of habituation of 30 seconds, the acoustic stimulus (90 dB, 10-20 kHz) was delivered for 30 seconds via the loud speakers. During this interval, the mice were observed and the presence of the 3 phases of the seizure activity, namely wild running, clonic and tonic convulsions, was recorded.
In all animals, blood samples were collected immediately after the seizure test (I h after dosing) by cardiac puncture under light carbon dioxide anesthesia, into heparinised microtubes. […] Levetiracetam was measured in plasma and brain samples by validated gas chromatography assay with mass detection. With sodium valproate, fluorescence polarization immunoassays were used.
The mean value plus standard deviation was calculated for plasma and brain concentrations of valproate and levetiracetam, and for the brain/plasma ratio. […]

For data set [2], the system named is diabetic rats (streptozocin-induced diabetic neuropathy). As to the kind of experiment: Randall and Selitto test, mechanical hyperalgesia in streptozotocin diabetic rats. Format: in vivo, rat. From the text:
In order to study the activity of levetiracetam with respect to chronic or neuropathic pain, the Applicant carried out a series of experiments based on the Randall test “A method for measurement of analgesic activity on inflamed tissue; Arch. Int. pharmacodyn., 1957, CXI, No4. P 409-419”. By virtue of this protocol, it was possible to determine the ability of levetiracetam to correct hyperalgesia secondary to induction of a neuropathic problem of metabolic origin in a rodent.
The diabetic neuropathy thereby induced allowed the correction of the hyperalgesia caused by the use of levetiracetam to be measured.
The animals used for these experiments were male Sprague-Dawley rats (Charles River, France), weighing 250-280 grams (g), which had undergone induction of diabetes one week after receipt. Male Sprague-Dawley rats (200-220 g) received one interperitoneal injection of streptozocin (75 mg/kg, i.p.) (Zanosar, Upjohn, France) dissolved in distilled water. Hyperglycaemia was confirmed one week after induction by determining the quantity of blood glucose (caudal puncture) using a Dextrostix reactive strip (Ames) read using a calorimeter (Ames Division, Miles Laboratoires, France). Animals with more than 14 millimoles (mM) were considered to be diabetic. The pain thresholds were determined 3 weeks after induction of diabetes.
This model was used in accordance with the description in COURTEIX et al., “Streptozocin-induced diabetic rats. Behavioural evidence for a model of chronic pain” Pain (1993), vol. 53, p81-88. The study was performed using the following compounds: • […]: (Laboratories UCB), dissolved in distilled water. • CARBAMAZEPINE: (Sigma), dissolved in hydroxy propel methylcellulose.
As has already been mentioned above, the test explained below was performed to stimulate a reaction in the animal with a mechanical nociceptive stimulus to a hind paw. An increasing pressure was applied using an analgesia meter (Ugo Basile, type 7200), until a cry was emitted which was considered to be the pain threshold, expressed in grams.
After determining the base thresholds, the animals received the study treatments (vehicle, levetiracetam, 17, 54, 95.2 and 120 mg/kg, carbamazepine, 10 and 30 mg/kg) administered intraperitoneally (i.p.) using the equal block method to avoid any chronobiological influence. The effects of different treatments were thus determined during the same time period. The reaction thresholds were measured 15, 30, 45, 60, 90, 120 and 180 minutes (min) after administration. All of the experiments were performed blind with 8 different animals per treatment.
The results are expressed as means±standard error of mean (S.E.M.).
The dose which could overcome 50% of the hyperalgesia induced by diabetes was calculated as the “anti-hyperalgesic dose effective 50”.
Statistical comparison was carried out by means of a two-way analysis of variance followed by Fischer's PLSD multiple comparison test to analyze the temporal effect.

For a further data set, the system named is healthy volunteers. The data set can be described thus: Clinical studies, tolerability in healthy volunteers. The data set is classed as in vivo, human.
For a further data set, the system named is epileptic patients. As to the kind of experiment: Tolerability studies in epileptic patients. The data set is classed as in vivo, human. Particulars: doses up to 4000 mg/day; preliminary data.

As for `CCCC(CCC)C(=O)[O-].[Na+]` [Valproate, sodium valproate], the Kp (usually tissue or fluid exposure divided by exposure in the circulation) at 1 h in data set [1] stood at 0.13 ± 0.02.

For `CC[C@@H](C(N)=O)N1CCCC1=O` [Levetiracetam, (S)-(−)α-ethyl-2-oxo-1-pyrrolidineacetamide], the “anti-hyperalgesic effective dose 50” value in data set [2] (dose overcoming 50% of the hyperalgesia induced by diabetes, i.p.) came out at 35.1 ± 1.8 mg/kg. The “Effect on diabetic hyperalgesia (in words)” value in data set [2] (i.p., diabetic rats) is on record as “a dose of 120 mg/kg of levetiracetam caused complete correction of hyperalgesia”. Moreover, the vocalization threshold in data set [2] (levetiracetam 17 mg/kg i.p. group, before diabetes (baseline), mean (SEM)) is 282.2 (5.48) g; in data set [2] (levetiracetam 17 mg/kg i.p., 15 min after injection), 211.9 (7.19)* g; in data set [2] (levetiracetam 17 mg/kg i.p., 30 min after injection), 206.3 (10.12)* g; in data set [2] (levetiracetam 17 mg/kg i.p., 45 min after injection) it was 193.1 (7.19) g; in data set [2] (levetiracetam 17 mg/kg i.p., 60 min after injection) it was 185.6 (4.86) g; in data set [2] (levetiracetam 17 mg/kg i.p., 90 min after injection) it was 178.1 (3.40) g. For the same compound, the vocalization threshold is 180.0 (2.83) g in data set [2] (levetiracetam 17 mg/kg i.p., 120 min after injection); 176.3 (2.45) g in data set [2] (levetiracetam 17 mg/kg i.p., 180 min after injection); 181.9 (3.09) g in data set [2] (levetiracetam 17 mg/kg i.p., after diabetes, 0 min (base threshold)); 296.3 (10.12) g in data set [2] (levetiracetam 54 mg/kg i.p. group, before diabetes (baseline), mean (SEM)); 238.1 g in data set [2] (levetiracetam 54 mg/kg i.p., 15 min after injection); 243.8 (15.97)* g in data set [2] (levetiracetam 54 mg/kg i.p., 30 min after injection). Moreover, the vocalization threshold in data set [2] (levetiracetam 54 mg/kg i.p., 45 min after injection) is on record as 230.6 g; in data set [2] (levetiracetam 54 mg/kg i.p., 60 min after injection) it was 189.4 (13.87) g; in data set [2] (levetiracetam 54 mg/kg i.p., 90 min after injection), 176.3 (8.39) g; in data set [2] (levetiracetam 54 mg/kg i.p., 120 min after injection) it was 176.3 (6.80) g; in data set [2] (levetiracetam 54 mg/kg i.p., 180 min after injection), 176.3 (6.80) g; in data set [2] (levetiracetam 54 mg/kg i.p., after diabetes, 0 min (base threshold)) it was 180.0 (5.30) g. The vocalization threshold in data set [2] (levetiracetam 95.2 mg/kg i.p. group, before diabetes (baseline), mean (SEM)) is reported as 306.6 (11.73) g; in data set [2] (levetiracetam 95.2 mg/kg i.p., 15 min after injection) it was 264.4 g; in data set [2] (levetiracetam 95.2 mg/kg i.p., 30 min after injection), 283.1 (24.62)* g; in data set [2] (levetiracetam 95.2 mg/kg i.p., 45 min after injection), 234.4 g; in data set [2] (levetiracetam 95.2 mg/kg i.p., 60 min after injection), 180.0 (12.36) g; in data set [2] (levetiracetam 95.2 mg/kg i.p., 90 min after injection), 180.0 (8.02) g. Besides, the vocalization threshold is recorded as 159.4 (3.95) g in data set [2] (levetiracetam 95.2 mg/kg i.p., 120 min after injection); 163.1 (4.43) g in data set [2] (levetiracetam 95.2 mg/kg i.p., 180 min after injection); 169.7 (6.00) g in data set [2] (levetiracetam 95.2 mg/kg i.p., after diabetes, 0 min (base threshold)); 309.4 (15.25) g in data set [2] (levetiracetam 120 mg/kg i.p. group, before diabetes (baseline), mean (SEM)); 331.9 g in data set [2] (levetiracetam 120 mg/kg i.p., 15 min after injection); 315.0 (30.00)* g in data set [2] (levetiracetam 120 mg/kg i.p., 30 min after injection). The vocalization threshold in data set [2] (levetiracetam 120 mg/kg i.p., 45 min after injection) was 262.5 g; in data set [2] (levetiracetam 120 mg/kg i.p., 60 min after injection), 213.8 (13.52)* g; in data set [2] (levetiracetam 120 mg/kg i.p., 90 min after injection), 176.3 (7.36) g; in data set [2] (levetiracetam 120 mg/kg i.p., 120 min after injection), 174.4 (6.30) g; in data set [2] (levetiracetam 120 mg/kg i.p., 180 min after injection), 168.8 (4.70) g; in data set [2] (levetiracetam 120 mg/kg i.p., after diabetes, 0 min (base threshold)), 161.3 (7.23) g. In addition, the “tolerability (in words)” value is given as “well tolerated” with healthy volunteers (repeated doses 1500 mg/day for 14 days), “well tolerated” in the data set on healthy volunteers (single dose) and “good tolerability” in the data set with epileptic patients.
